The record followed here is ChEMBL document CHEMBL3632552, “Discovery of (phenoxy-2-hydroxypropyl)piperidines as a novel class of voltage-gated sodium channel 1.7 inhibitors” (Bioorg Med Chem Lett, 2015).

The IC50 is the concentration needed to halve the response being measured. Usually Cmax stands for the peak of the concentration-time curve. By ED50 is commonly meant the dose at which the effect has come halfway, by size or by number of responders. As usually defined, the AUC is concentration integrated over time. Low values mean low exposure, high ones high exposure. For orientation: Tmax means the time from dosing to the highest level.

Data set [1] concerns the target Sodium channel protein type 9 subunit alpha (Mus musculus, UniProt Q62205). Put plainly: Inhibition of mouse NaV1.7 by IonWorks quattro automated electrophysiology assay. For orientation: Patch clamp records ionic current or voltage across a cell membrane.
In data set [2] the target is Sodium channel protein type 9 subunit alpha (Homo sapiens, UniProt Q15858). As to the kind of experiment: Inhibition of human NaV1.7 by IonWorks quattro automated electrophysiology assay.
Data set [3] addresses Sodium channel protein type 1 subunit alpha (Homo sapiens, UniProt P35498). Put plainly: Inhibition of human NaV1.1 by IonWorks quattro automated electrophysiology assay.
Data set [4] concerns the target Sodium channel protein type 5 subunit alpha (Homo sapiens, UniProt Q14524). As to the kind of experiment: Inhibition of human NaV1.5 by IonWorks quattro automated electrophysiology assay.
For data set [5], the target named is Sodium channel protein type 1 subunit alpha (Mus musculus, UniProt A2APX8). Put plainly: Inhibition of mouse NaV1.1 by IonWorks quattro automated electrophysiology assay.
Data set [6] in a line: Cmax in db/db mouse at 30 mg/kg, po. Type of data set: ADME, organism-based. More on the design: dose 30 mg/kg, route oral. Particulars: in vivo.
For data set [7], the species on record is Mus musculus. Put plainly: Analgesic activity in mouse assessed as inhibition of acetic acid-induced writhing response. The class given is functional. Background: An intraperitoneal irritant provokes the stretching counted in writhing tests.
The next data set has as its system Plasma. As to the kind of experiment: Fraction unbound in mouse plasma. Type of data set: ADME, cell-free.
Data set [8] in a line: AUC in db/db mouse at 30 mg/kg, po. The class given is ADME, organism-based. Particulars: in vivo.
Data set [9] concerns Mus musculus. Put plainly: Toxicity in mouse assessed as reduction of locomotor activity at 100 mg/kg, po. The settings on record: in vivo. Type of data set: organism-based.
Data set [10] in a line: Tmax in db/db mouse at 30 mg/kg, po. The class given is ADME, organism-based. The settings on record: in vivo.
The nature of data set [11]: Therapeutic index, ratio of toxic ID50 in mouse to analgesic activity ED50 in mouse. Type of data set: organism-based. The settings on record: in vivo, read-out: TI.
The subject of data set [12] is Mus musculus. As to the kind of experiment: Toxicity in po dosed mouse assessed as reduction of locomotor activity. Type of data set: organism-based. The settings on record: in vivo.
A short description of data set [13]: Cmax in CD mouse at 30 mg/kg, po. Type of data set: ADME, organism-based. More on the design: dose 30 mg/kg, route oral. The settings on record: in vivo.
A short description of data set [14]: Tmax in CD mouse at 30 mg/kg, po. Particulars: in vivo. The class given is ADME, organism-based.
Data set [15] in a line: AUC in CD mouse at 30 mg/kg, po. The class given is ADME, organism-based. The settings on record: in vivo.

Where only a bound is given, the exact number is not on record here.

Sodium channel protein type 9 subunit alpha (Mus musculus, UniProt Q62205), sequence (Q62205 whole entry): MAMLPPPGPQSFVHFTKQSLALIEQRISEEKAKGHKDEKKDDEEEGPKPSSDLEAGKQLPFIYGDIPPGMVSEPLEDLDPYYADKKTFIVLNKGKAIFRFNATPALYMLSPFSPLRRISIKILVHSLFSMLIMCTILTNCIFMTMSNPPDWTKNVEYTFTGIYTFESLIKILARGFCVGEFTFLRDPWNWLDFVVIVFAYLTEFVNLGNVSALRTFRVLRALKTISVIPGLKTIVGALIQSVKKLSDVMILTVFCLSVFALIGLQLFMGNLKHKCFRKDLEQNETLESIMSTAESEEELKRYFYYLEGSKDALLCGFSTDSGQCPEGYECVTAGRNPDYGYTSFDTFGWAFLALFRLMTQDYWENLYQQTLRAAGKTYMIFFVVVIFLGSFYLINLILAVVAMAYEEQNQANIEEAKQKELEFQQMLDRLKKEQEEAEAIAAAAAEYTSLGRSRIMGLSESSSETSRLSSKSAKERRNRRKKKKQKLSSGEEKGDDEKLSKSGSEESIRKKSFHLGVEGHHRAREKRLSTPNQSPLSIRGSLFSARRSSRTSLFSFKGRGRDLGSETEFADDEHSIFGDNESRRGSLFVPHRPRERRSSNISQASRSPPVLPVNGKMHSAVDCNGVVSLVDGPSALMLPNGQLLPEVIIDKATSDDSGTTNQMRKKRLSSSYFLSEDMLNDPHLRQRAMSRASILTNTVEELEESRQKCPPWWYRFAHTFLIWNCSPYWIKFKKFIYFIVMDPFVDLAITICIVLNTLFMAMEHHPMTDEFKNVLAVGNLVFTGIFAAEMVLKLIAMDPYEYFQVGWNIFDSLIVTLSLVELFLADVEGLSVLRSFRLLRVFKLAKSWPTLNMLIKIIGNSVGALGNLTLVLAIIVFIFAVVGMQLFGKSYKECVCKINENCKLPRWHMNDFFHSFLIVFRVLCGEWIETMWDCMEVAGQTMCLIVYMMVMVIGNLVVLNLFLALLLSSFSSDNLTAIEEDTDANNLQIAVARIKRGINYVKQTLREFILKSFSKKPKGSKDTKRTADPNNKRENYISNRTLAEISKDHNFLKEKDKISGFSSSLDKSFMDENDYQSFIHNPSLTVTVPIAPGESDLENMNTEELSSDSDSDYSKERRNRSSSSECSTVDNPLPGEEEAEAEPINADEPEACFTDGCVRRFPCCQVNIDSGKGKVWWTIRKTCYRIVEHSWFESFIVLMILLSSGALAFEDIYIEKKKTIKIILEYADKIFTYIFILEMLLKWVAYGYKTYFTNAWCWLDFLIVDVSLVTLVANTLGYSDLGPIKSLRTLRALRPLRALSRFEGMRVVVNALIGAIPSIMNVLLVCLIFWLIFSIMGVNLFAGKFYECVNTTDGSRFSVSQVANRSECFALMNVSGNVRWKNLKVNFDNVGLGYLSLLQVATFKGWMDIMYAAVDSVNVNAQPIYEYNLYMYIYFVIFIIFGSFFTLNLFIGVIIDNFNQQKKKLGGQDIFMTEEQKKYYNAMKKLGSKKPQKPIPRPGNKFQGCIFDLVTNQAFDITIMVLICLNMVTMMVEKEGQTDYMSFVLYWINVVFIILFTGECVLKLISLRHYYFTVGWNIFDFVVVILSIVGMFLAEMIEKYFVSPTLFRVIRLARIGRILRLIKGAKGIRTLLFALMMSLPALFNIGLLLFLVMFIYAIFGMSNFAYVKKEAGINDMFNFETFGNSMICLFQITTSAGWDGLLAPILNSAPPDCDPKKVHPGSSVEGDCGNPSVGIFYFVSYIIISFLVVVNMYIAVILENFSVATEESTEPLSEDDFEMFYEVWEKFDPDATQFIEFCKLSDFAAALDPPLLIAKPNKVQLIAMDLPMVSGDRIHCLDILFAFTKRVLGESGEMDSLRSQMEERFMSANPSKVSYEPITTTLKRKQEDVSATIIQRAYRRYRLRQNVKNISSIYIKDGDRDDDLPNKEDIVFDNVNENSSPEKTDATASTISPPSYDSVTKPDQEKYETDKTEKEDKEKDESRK
Sodium channel protein type 9 subunit alpha (Homo sapiens, UniProt Q15858), sequence (Q15858 whole entry): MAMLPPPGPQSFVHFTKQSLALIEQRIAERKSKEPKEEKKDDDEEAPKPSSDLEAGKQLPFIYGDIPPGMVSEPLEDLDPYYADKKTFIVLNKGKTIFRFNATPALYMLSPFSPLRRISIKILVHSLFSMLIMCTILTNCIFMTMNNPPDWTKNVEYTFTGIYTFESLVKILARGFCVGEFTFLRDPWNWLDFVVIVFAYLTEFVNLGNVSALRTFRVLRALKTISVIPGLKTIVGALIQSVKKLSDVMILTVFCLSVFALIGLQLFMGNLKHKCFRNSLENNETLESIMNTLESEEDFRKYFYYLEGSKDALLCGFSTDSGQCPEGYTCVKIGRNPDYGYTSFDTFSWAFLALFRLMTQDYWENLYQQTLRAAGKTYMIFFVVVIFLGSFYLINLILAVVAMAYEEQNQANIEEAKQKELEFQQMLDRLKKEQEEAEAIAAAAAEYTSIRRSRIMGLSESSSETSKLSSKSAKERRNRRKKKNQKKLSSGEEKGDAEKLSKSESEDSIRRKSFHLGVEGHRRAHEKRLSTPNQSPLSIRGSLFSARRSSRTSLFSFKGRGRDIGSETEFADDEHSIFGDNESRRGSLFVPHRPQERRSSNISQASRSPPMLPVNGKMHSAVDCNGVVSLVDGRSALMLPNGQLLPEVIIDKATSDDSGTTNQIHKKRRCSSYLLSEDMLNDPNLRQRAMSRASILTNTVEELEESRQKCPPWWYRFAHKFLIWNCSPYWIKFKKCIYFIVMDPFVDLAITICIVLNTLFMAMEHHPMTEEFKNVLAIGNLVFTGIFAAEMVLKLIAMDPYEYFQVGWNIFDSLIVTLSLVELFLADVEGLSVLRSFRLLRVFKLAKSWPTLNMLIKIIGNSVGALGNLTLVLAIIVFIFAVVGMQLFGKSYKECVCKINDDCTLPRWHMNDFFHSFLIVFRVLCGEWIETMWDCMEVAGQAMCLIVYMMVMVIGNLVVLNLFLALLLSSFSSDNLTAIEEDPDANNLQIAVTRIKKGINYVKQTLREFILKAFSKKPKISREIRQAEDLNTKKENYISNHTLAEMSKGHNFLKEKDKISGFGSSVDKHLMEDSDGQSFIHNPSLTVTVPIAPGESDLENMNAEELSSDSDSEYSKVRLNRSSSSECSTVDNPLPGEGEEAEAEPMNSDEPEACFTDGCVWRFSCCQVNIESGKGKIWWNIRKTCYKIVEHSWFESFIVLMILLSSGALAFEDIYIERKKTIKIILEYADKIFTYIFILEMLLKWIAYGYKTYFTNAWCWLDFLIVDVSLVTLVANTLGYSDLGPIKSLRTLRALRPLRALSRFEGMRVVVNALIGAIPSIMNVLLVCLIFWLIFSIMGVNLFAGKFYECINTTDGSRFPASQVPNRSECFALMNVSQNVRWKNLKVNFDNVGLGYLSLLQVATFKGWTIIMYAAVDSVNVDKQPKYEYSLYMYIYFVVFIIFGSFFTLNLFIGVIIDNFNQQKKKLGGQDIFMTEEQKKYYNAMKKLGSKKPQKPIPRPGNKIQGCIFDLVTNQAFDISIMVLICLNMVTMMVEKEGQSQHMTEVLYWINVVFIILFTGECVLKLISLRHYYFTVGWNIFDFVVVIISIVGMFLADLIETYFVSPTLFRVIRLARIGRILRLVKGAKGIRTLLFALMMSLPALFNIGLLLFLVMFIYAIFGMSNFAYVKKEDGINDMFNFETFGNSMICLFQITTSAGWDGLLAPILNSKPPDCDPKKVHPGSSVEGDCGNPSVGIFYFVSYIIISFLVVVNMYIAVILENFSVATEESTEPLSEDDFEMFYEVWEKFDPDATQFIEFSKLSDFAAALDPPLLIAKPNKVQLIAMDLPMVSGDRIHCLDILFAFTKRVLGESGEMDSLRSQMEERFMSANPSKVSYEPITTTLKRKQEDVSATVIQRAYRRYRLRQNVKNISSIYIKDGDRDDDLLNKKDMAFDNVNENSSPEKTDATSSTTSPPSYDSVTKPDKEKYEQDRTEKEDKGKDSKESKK

Take `O=C(c1ccccc1)c1ccc(OCC(O)CN2CCC(N3Cc4ccccc4C3=O)CC2)cc1` (stereo not given): the IC50 in data set [1] turned out to be 0.59 µM; in data set [2] it was 0.38 µM; in data set [3], 0.67 µM; in data set [4], 1.2 µM.

Consider `O=C1c2ccccc2CN1C1CCN(CC(O)COc2cccc(C(F)(F)F)c2)CC1` (stereo not given), for which the IC50 in [1] was found to be 0.79 µM; in [2] it was 1 µM; in [3], 1.2 µM; in [4] it was 4.4 µM.

As to `O=C1c2ccccc2CN1C1CCN(CC(O)COc2ccc(C(F)(F)F)cc2)CC1` (stereo not given), the IC50 came to 0.1 µM in [1], 0.5 µM in [2], 1.8 µM in [3] and 2.8 µM in data set [4].

As for `COc1cc(C(F)(F)F)ccc1OCC(O)CN1CCC(N2Cc3ccccc3C2=O)CC1` (stereo not given), the IC50 turned out to be 0.33 µM in [1], 0.48 µM in data set [2], 0.91 µM in data set [3] and 5.6 µM in [4].

In the case of `O=C1c2ccccc2CN1C1CCN(CC(O)COCc2ccc(C(F)(F)F)cc2)CC1` (stereo not given), the IC50 in data set [1] is 1.5 µM; in data set [2], 1.1 µM; in data set [3], 3 µM; in data set [4], 3 µM.

In the case of `COc1cc(C(F)(F)F)ccc1COCC(O)CN1CCC(N2Cc3ccccc3C2=O)CC1.O=C(O)/C=C/C(=O)O` (stereo not given), the half-maximal inhibitory concentration (IC50) in data set [5] is 0.67 µM; in data set [1], 0.79 µM; in data set [2], 1.2 µM; in data set [3], 1.5 µM; in data set [4] it was 6.1 µM. This compound also yielded a maximum concentration (Cmax) in [6] of 445 ng/mL. For the same compound, the ED50 in the data set listed under Mus musculus [7] is 10 mg/kg. This compound also registered a Fu in the data set with Plasma of 5.55%. For the same compound, the AUC in [8] was 1910 ng·h/mL. Moreover, the Activity result with Mus musculus [9] is listed as “Toxic”. In addition, the time of peak concentration (Tmax) in data set [10] worked out at 30 min.

For `O=C(NC1CCN(CC(O)COc2ccc(C(F)(F)F)cc2)CC1)c1ccccc1` (stereo not given), the IC50 in data set [1] was determined as 0.4 µM; in [2], 0.7 µM; in [3] it was 0.8 µM; in data set [4], 1.1 µM.

For the compound `O=C(Nc1ccccc1)C1CCN(CC(O)COc2ccc(C(F)(F)F)cc2)CC1` (stereo not given), the half-inhibitory concentration (IC50) turned out to be 0.8 µM in data set [1], 1 µM in data set [2], 3.1 µM in data set [3] and 3.4 µM in [4].

As to `COc1cc(C(F)(F)F)ccc1COCC(O)CN1CCC(C(=O)Nc2ccccc2)CC1` (stereo not given), the half-maximal inhibitory concentration (IC50) worked out at 2.4 µM in [5]; 1.3 µM in [1]; 1.7 µM in data set [2]; 3.3 µM in [3]; 16 µM in data set [4]. Also, in [6], the highest level (Cmax) was 161 ng/mL. For the same compound, the selectivity ratio in data set [11] came out at 5.8. Further, the ID50 in the data set on Mus musculus [12] stood at 111 mg/kg. Further, the median effective dose (ED50) in the data set filed under Mus musculus [7] turned out to be 19 mg/kg. The same compound returned a Fu in the data set on Plasma of 4.18%. In data set [8], the AUC was 303 ng·h/mL. In addition, the Tmax in [10] was found to be 30 min.

Regarding `O=C1COc2c(cccc2N2CCN(CC(O)COc3ccccc3C(=O)c3ccccc3)CC2)N1` (stereo not given), the IC50 was 5 µM in data set [1], 3.9 µM in [2], above 33 µM in data set [3] and 20 µM in data set [4].

As for `O=C1COc2c(cccc2C2CCN(CC(O)COc3ccccc3C(=O)c3ccccc3)CC2)N1` (stereo not given), the IC50 in data set [1] was determined as 2.1 µM; in data set [2], 0.78 µM; in data set [3], 4.4 µM; in data set [4] it was 7 µM.

With `O=C1CCc2c(cccc2N2CCN(CC(O)COc3ccccc3C(=O)c3ccccc3)CC2)N1` (stereo not given), the IC50 in [1] is 2.4 µM; in data set [2], 3.7 µM; in data set [3], 21 µM; in data set [4], 17 µM.

For `O=C1CCc2c(cccc2C2CCN(CC(O)COc3ccccc3C(=O)c3ccccc3)CC2)N1` (stereo not given), the IC50 in data set [1] turned out to be 16 µM; in data set [2], 1.3 µM; in [3] it was 7.1 µM; in [4], 18 µM.

On to `O=C(c1ccccc1)c1ccccc1OCC(O)CN1CCN(c2cccc3[nH]c(=O)oc23)CC1` (stereo not given), for which the IC50 in [1] is 31 µM; in data set [2] it was 24 µM; in [3], above 33 µM; in data set [4], above 33 µM.

With `O=C(c1ccccc1)c1ccccc1OCC(O)CN1CCC(N2C(=O)COc3ccccc32)CC1` (stereo not given), the IC50 was found to be 1.3 µM in [1], 1.1 µM in data set [2], 4.8 µM in [3] and 5.2 µM in data set [4].

In the case of `O=C(c1ccccc1)c1ccccc1OCC(O)CN1CCC(n2c(=O)oc3ccccc32)CC1` (stereo not given), the IC50 in [1] came to 3.1 µM; in [2], 1.8 µM; in [3], 5.4 µM; in [4], 3.4 µM.

For the compound `O=C(c1ccccc1)c1ccccc1OCC(O)CN1CCC(N2C(=O)Cc3ccccc32)CC1` (stereo not given), the 50% inhibitory concentration (IC50) in data set [1] came to 5 µM; in [2], 9.4 µM; in [3], 26 µM; in [4] it was 33 µM.

`O=C(c1ccccc1)c1ccccc1OCC(O)CN1CCC(N2Cc3ccccc3C2=O)CC1` (stereo not given) showed a Cmax in data set [13] of 16 ng/mL. Further, the IC50 in [5] stood at 3.1 µM; in [1], 1.2 µM; in data set [2], 1.5 µM; in data set [3] it was 3.3 µM; in [4] it was 24 µM. Also, in data set [14], the Tmax stood at 30 min. Moreover, the AUC in data set [15] amounted to 18 ng·h/mL.

As to `O=C(NC1CCN(CC(O)COc2ccccc2C(=O)c2ccccc2)CC1)c1ccccc1` (stereo not given), the IC50 in data set [1] is 0.92 µM; in data set [2], 1.1 µM; in data set [3] it was 3.2 µM; in data set [4], 4.9 µM.

For `O=C(c1ccccc1)c1ccccc1OCC(O)CN1CCC(C(=O)Nc2ccccc2)CC1` (stereo not given), the IC50 in data set [1] came to 1 µM; in data set [2] it was 1.2 µM; in [3], 4.3 µM; in data set [4], 1.9 µM.

Consider `O=C(c1ccccc1)c1cccc(OCC(O)CN2CCC(N3Cc4ccccc4C3=O)CC2)c1` (stereo not given), for which, in data set [13], the Cmax came out at 169 ng/mL. Besides, the IC50 turned out to be 0.69 µM in [5]; 0.96 µM in data set [1]; 0.9 µM in data set [2]; 0.92 µM in data set [3]; 3.7 µM in data set [4]. Also, the Tmax in data set [14] was determined as 30 min. In the data set with Plasma, this compound displayed a Fu of 1.99%. This compound returned an exposure (AUC) in data set [15] of 525 ng·h/mL.

`O=C1c2ccccc2CN1C1CCN(CC(O)COc2ccccc2)CC1` (stereo not given): the half-inhibitory concentration (IC50) in [1] worked out at 5 µM; in [2], 3.4 µM; in data set [3], 8 µM; in data set [4], 38 µM.

In [13], `COc1ccccc1OCC(O)CN1CCC(N2Cc3ccccc3C2=O)CC1` (stereo not given) came in with a maximum concentration (Cmax) of 467 ng/mL. In addition, the half-inhibitory concentration (IC50) in data set [5] came out at 34 µM; in data set [1] it was 4.8 µM; in data set [2] it was 5.3 µM; in data set [3], 19 µM; in data set [4], 77 µM. In addition, the Tmax in data set [14] came out at 30 min. Further, in data set [11], the selectivity ratio was 2.9. The ID50 in the data set with Mus musculus [12] was found to be 20 mg/kg. In addition, the median effective dose (ED50) in the data set filed under Mus musculus [7] was determined as 7 mg/kg. For the same compound, the AUC in data set [15] was determined as 692 ng·h/mL.

`COc1cccc(OCC(O)CN2CCC(N3Cc4ccccc4C3=O)CC2)c1` (stereo not given): the IC50 was found to be 0.91 µM in [1], 1.4 µM in data set [2], 3 µM in [3] and 10 µM in data set [4].

Regarding `COc1ccc(OCC(O)CN2CCC(N3Cc4ccccc4C3=O)CC2)cc1` (stereo not given), the IC50 was 1.3 µM in data set [1], 1.8 µM in [2], 2.7 µM in [3] and 13 µM in data set [4].

For `O=C1c2ccccc2CN1C1CCN(CC(O)COc2ccccc2C(F)(F)F)CC1` (stereo not given), the IC50 in data set [1] was found to be 4.8 µM; in data set [2], 2.8 µM; in [3], 4.5 µM; in [4] it was 7.1 µM.

On to `Cc1cccc(C)c1OCC(C)N.Cl` (stereo not given) [MEXILETINE HYDROCHLORIDE], for which the concentration for half-maximal inhibition (IC50) in [5] stood at 21 µM; in data set [1] it was 11 µM; in data set [3], 11 µM. Moreover, in the data set on Mus musculus [12], the ID50 turned out to be 45 mg/kg. For the same compound, the 50% effective dose (ED50) in the data set filed under Mus musculus [7] is 21 mg/kg.
